The values below are quoted from earlier work in US20170274026A1, “METHOD OF MAKING TRITERPENOIDS FROM PETRI DISH CULTUREDANTRODIA CINNAMOMEA” (Ultra-Microrigin Biomedical Technology Co., Ltd., priority 2016, published 2017).

The subject of the data set is cancer cells. The following applies: Toxicology in Vitro and International Journal of Gerontology.

For the compound `C=C(CC[C@@H](C(=O)O)[C@H]1C[C@H](O)[C@@]2(C)C3=CC[C@H]4C(C)(C)[C@@H](O)CC[C@]4(C)C3=CC[C@]12C)C(C)C` [MMH01, dehydrosulphurenic acid], the “anti-tumor effect and repressing the growth of cancer cells” value is “effective in anti-tumor and repressing the growth of cancer cells”.
